The values below are quoted from earlier work in patent publication US5846971A, “Oral antifungal composition” (Schering Corporation, priority 1997, dated 1998).

The structures appear in SMILES notation.

One series deals with Candida. The conditions noted are these: in suspensions.
The next series deals with Cryptococcus. The conditions noted are these: in suspensions.
In another series the test system is Aspergillis. As to conditions: in suspensions.

With `CC[C@@H]([C@H](C)O)n1ncn(-c2ccc(N3CCN(c4ccc(OC[C@@H]5CO[C@@](Cn6cncn6)(c6ccc(F)cc6F)C5)cc4)CC3)cc2)c1=O` [the antifungal compound, (-)-(2R-cis)-4-[4-[4-[4-[[-5-(2,4-difluorophenyl)-tetrahydro-5-(1H-1,2,4-triazol-1-ylmethyl)furan-3-yl]methoxy]phenyl]-1-piperazinyl]phenyl]-2,-4-dihydro-2-[(S)-1-ethyl-2(S)-hydroxypropyl]-3H-1,2,4-triazol-3-one], the water solubility entry was “extremely low water solubility”. Moreover, the antifungal activity result in the series on Candida is listed as “potent antifungal activity”. For the same compound, the antifungal activity result in the series on Cryptococcus is reported as “potent antifungal activity”. Besides, in the series with Aspergillis, the antifungal activity entry is “potent antifungal activity”.
